Laboratory results reported in PubChem BioAssay (NCI).
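Tested at 5 concentrations; 48 h exposure; 96-well plates; endpoints linearly interpolated, else capped at highest concentration. Here, GI50 denotes the concentration required for 50% inhibition of growth. TGI marks complete inhibition of growth.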

Legend:
Test in all cases: NCI tumour cell line growth inhibition, 48 h
[1] = test system: 786-0 renal
[2] = test system: A498 renal
[3] = test system: A549 NSCLC
[4] = test system: ACHN renal
[5] = test system: CCRF-CEM leukemia
[6] = test system: COLO 205 colon
[7] = test system: DU-145 prostate
[8] = test system: EKVX NSCLC
[9] = test system: HCC-2998 colon
[10] = test system: HCT-116 colon
[11] = test system: HCT-15 colon
[12] = test system: HL-60(TB) leukemia
[13] = test system: HOP-62 NSCLC
[14] = test system: HOP-92 NSCLC
[15] = test system: HS 578T breast
[16] = test system: HT29 colon
[17] = test system: IGROV1 ovarian
[18] = test system: KM12 colon
[19] = test system: LOX IMVI melanoma
[20] = test system: M14 melanoma
[21] = test system: MALME-3M melanoma
[22] = test system: MCF7 breast
[23] = test system: MDA-MB-231 breast
[24] = test system: MDA-MB-435
[25] = test system: MOLT-4 leukemia
[26] = test system: NCI-H226 lung
[27] = test system: NCI-H23 lung
[28] = test system: NCI-H460 lung
[29] = test system: NCI/ADR-RES ovarian
[30] = test system: OVCAR-4 ovarian
[31] = test system: OVCAR-5 ovarian
[32] = test system: OVCAR-8 ovarian
[33] = test system: RPMI-8226 leukemia
[34] = test system: RXF 393 renal
[35] = test system: SF-268 CNS
[36] = test system: SF-295 CNS
[37] = test system: SF-539 CNS
[38] = test system: SK-MEL-28 melanoma
[39] = test system: SK-MEL-5 melanoma
[40] = test system: SK-OV-3 ovarian
[41] = test system: SN12C renal
[42] = test system: SNB-19 CNS
[43] = test system: SNB-75 CNS
[44] = test system: SR leukemia
[45] = test system: SW-620 colon
[46] = test system: T-47D breast
[47] = test system: TK-10 renal
[48] = test system: U251 CNS
[49] = test system: UACC-257 melanoma
[50] = test system: UACC-62 melanoma
[51] = test system: UO-31 renal
[52] = test system: BT-549 breast
[53] = test system: CAKI-1 renal
[54] = test system: K-562 leukemia
[55] = test system: NCI-H522 lung
[56] = test system: OVCAR-3 ovarian
[57] = test system: PC-3 prostate
[58] = test system: SK-MEL-2 melanoma

Compound COC(=O)CC[N+]1([O-])CC1 has a TGI [1] greater than 100 µM, a TGI [2] greater than 100 µM and a TGI [3] greater than 100 µM. It also gave a TGI [4] greater than 100 µM, a TGI [5] greater than 100 µM and a TGI [6] greater than 100 µM. It also gave a TGI [7] greater than 100 µM, a TGI [8] greater than 100 µM and a TGI [9] greater than 100 µM. It also gave a TGI [10] greater than 100 µM, a TGI [11] greater than 100 µM and a TGI [12] greater than 100 µM. The TGI [13] was greater than 100 µM, the TGI [14] was greater than 100 µM and the TGI [15] was greater than 100 µM. For the same compound, the TGI [16] was greater than 100 µM, the TGI [17] was greater than 100 µM and the TGI [18] was greater than 100 µM. For the same compound, the TGI [19] was greater than 100 µM, the TGI [20] was greater than 100 µM and the TGI [21] was greater than 100 µM. For the same compound, the TGI [22] was greater than 100 µM, the TGI [23] was greater than 100 µM and the TGI [24] was greater than 100 µM. For the same compound, the TGI [25] was greater than 100 µM, the TGI [26] was greater than 100 µM and the TGI [27] was greater than 100 µM. For the same compound, the TGI [28] was greater than 100 µM, the TGI [29] was greater than 100 µM and the TGI [30] was greater than 100 µM. The TGI [31] was greater than 100 µM, the TGI [32] was greater than 100 µM and the TGI [33] was greater than 100 µM. It also gave a TGI [34] greater than 100 µM, a TGI [35] greater than 100 µM and a TGI [36] greater than 100 µM. It also gave a TGI [37] greater than 100 µM, a TGI [38] greater than 100 µM and a TGI [39] greater than 100 µM. It also gave a TGI [40] greater than 100 µM, a TGI [41] greater than 100 µM and a TGI [42] greater than 100 µM. It also gave a TGI [43] greater than 100 µM, a TGI [44] greater than 100 µM and a TGI [45] greater than 100 µM. For the same compound, the TGI [46] was greater than 100 µM, the TGI [47] was greater than 100 µM and the TGI [48] was greater than 100 µM. For the same compound, the TGI [49] was greater than 100 µM, the TGI [50] was greater than 100 µM and the TGI [51] was greater than 100 µM.

With O=C1C(Cl)=C(Oc2ccccc2)C(=O)c2ccccc21 the GI50 [1] was 15.6 µM, the TGI [1] was 29.1 µM and the GI50 [2] was 9.24 µM. It also gave a TGI [2] of 22.6 µM, a GI50 [3] of 21 µM and a TGI [3] of 51.8 µM. The GI50 [4] was 1.63 µM, the TGI [4] was 3.14 µM and the GI50 [52] was 2.86 µM. The TGI [52] was 9.3 µM, the GI50 [53] was 1.8 µM and the TGI [53] was 4.03 µM. It also gave a GI50 [5] of 2.23 µM, a TGI [5] of 8.32 µM and a GI50 [6] of 1.68 µM. For the same compound, the TGI [6] was 3.24 µM, the GI50 [7] was 16.2 µM and the TGI [7] was 31 µM. For the same compound, the GI50 [8] was 4.77 µM, the TGI [8] was 24 µM and the GI50 [9] was 4.28 µM. For the same compound, the TGI [9] was 15.9 µM, the GI50 [10] was 1.82 µM and the TGI [10] was 3.41 µM. It also gave a GI50 [11] of 12.1 µM, a TGI [11] of 31.5 µM and a GI50 [12] of 2.54 µM. The TGI [12] was 17.7 µM, the GI50 [13] was 8.55 µM and the TGI [13] was 22.2 µM. It also gave a GI50 [14] of 1.8 µM, a TGI [14] of 4.56 µM and a GI50 [15] of 2.62 µM. It also gave a TGI [15] of 13 µM, a GI50 [16] of 3.09 µM and a TGI [16] of 12.3 µM. It also gave a GI50 [17] of 2.96 µM, a TGI [17] of 9.63 µM and a GI50 [54] of 3.17 µM. For the same compound, the TGI [54] was greater than 100 µM, the GI50 [18] was 2.84 µM and the TGI [18] was 8.84 µM. For the same compound, the GI50 [19] was 9.98 µM, the TGI [19] was 22.7 µM and the GI50 [20] was 8.55 µM. The TGI [20] was 22 µM, the GI50 [21] was 1.6 µM and the TGI [21] was 3.41 µM. For the same compound, the GI50 [22] was 7.3 µM, the TGI [22] was 25.2 µM and the GI50 [23] was 6.51 µM. The TGI [23] was 21.1 µM, the GI50 [24] was 8.06 µM and the TGI [24] was 24.1 µM. The GI50 [25] was 4.09 µM, the TGI [25] was 30.7 µM and the GI50 [26] was 12.1 µM. For the same compound, the TGI [26] was 28.7 µM, the GI50 [27] was 9.49 µM and the TGI [27] was 24.5 µM. It also gave a GI50 [28] of 5.57 µM, a TGI [28] of 23.1 µM and a GI50 [55] of 1.51 µM. The TGI [55] was 2.96 µM, the GI50 [29] was 7.75 µM and the TGI [29] was 37.9 µM. It also gave a GI50 [56] of 1.83 µM, a TGI [56] of 3.42 µM and a GI50 [30] of 2.58 µM. It also gave a TGI [30] of 7.22 µM, a GI50 [31] of 16.7 µM and a TGI [31] of 31.7 µM. For the same compound, the GI50 [32] was 14.3 µM, the TGI [32] was 36.8 µM and the GI50 [57] was 4.34 µM. For the same compound, the TGI [57] was 20.9 µM, the GI50 [33] was 2.69 µM and the TGI [33] was 11.4 µM. The GI50 [34] was 2.75 µM, the TGI [34] was 6.84 µM and the GI50 [35] was 5.37 µM. It also gave a TGI [35] of 18.7 µM, a GI50 [36] of 3.03 µM and a TGI [36] of 11.3 µM. It also gave a GI50 [37] of 5.96 µM, a TGI [37] of 14.2 µM and a GI50 [58] of 6.56 µM. The TGI [58] was 19.4 µM, the GI50 [38] was 13.5 µM and the TGI [38] was 27.1 µM. The GI50 [39] was 6.26 µM, the TGI [39] was 17.1 µM and the GI50 [40] was 6.51 µM. It also gave a TGI [40] of 23.6 µM, a GI50 [41] of 11.2 µM and a TGI [41] of 29.5 µM. For the same compound, the GI50 [42] was 4.11 µM, the TGI [42] was 17.4 µM and the GI50 [43] was 1.93 µM. It also gave a TGI [43] of 12.9 µM, a GI50 [44] of 4.49 µM and a TGI [44] of 39.1 µM. For the same compound, the GI50 [45] was 1.81 µM, the TGI [45] was 3.57 µM and the GI50 [47] was 1.87 µM. It also gave a TGI [47] of 3.41 µM, a GI50 [48] of 3.57 µM and a TGI [48] of 13.4 µM. For the same compound, the GI50 [49] was 4.65 µM, the TGI [49] was 14.1 µM and the GI50 [50] was 3.46 µM. It also gave a TGI [50] of 11.7 µM, a GI50 [51] of 1.23 µM and a TGI [51] of 3.23 µM.
